{"source": "patent US9434711B2", "about": "(Janssen Pharmaceutica, NV, priority 2007, dated 2016)", "target": "canine TRPM8 (Canis lupus familiaris, UniProt Q1A7N1)", "sequence (Q1A7N1 1-1104)": "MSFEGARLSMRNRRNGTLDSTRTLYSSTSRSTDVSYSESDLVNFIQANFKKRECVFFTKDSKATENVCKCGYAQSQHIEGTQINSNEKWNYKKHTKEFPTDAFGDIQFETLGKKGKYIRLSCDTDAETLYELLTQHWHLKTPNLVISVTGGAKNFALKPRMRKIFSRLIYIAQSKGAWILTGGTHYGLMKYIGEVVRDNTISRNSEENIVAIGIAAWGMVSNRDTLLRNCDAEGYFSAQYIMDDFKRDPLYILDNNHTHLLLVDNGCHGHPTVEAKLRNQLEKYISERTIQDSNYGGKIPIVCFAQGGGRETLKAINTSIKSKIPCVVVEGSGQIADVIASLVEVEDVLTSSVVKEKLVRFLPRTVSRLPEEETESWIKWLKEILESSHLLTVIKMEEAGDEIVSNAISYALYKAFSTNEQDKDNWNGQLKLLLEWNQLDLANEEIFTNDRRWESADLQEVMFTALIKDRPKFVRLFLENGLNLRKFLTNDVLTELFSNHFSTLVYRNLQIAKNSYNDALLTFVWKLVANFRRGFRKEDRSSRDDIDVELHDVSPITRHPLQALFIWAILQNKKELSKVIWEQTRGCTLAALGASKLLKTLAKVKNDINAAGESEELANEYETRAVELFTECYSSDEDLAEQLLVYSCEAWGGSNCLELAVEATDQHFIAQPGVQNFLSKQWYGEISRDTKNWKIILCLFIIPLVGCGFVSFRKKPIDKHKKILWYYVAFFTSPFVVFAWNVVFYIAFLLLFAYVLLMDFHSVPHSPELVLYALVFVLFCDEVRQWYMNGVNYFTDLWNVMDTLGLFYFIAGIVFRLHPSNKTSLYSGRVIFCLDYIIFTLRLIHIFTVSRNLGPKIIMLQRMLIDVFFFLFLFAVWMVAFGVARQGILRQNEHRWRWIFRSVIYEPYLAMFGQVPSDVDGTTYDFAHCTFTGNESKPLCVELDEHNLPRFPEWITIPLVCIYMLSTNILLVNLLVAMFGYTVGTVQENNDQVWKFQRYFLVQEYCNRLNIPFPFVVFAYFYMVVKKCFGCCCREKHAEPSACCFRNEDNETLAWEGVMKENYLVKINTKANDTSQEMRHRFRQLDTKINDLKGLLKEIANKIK", "test": "In Vitro Canine TRPM8 Functional Assay (Ca2+ fluorescence, icilin activation)", "format": "cell-based", "settings": "for inhibition at 0.2 µM: compound at 0.2 μM, read-out: % Inh @ 0.2; for inhibition at 0.2 µM / inhibition at 0.5 µM: canine TRPM8, icilin activation; for inhibition at 0.5 µM: compound at 0.5 μM, read-out: % Inh @ 0.5; for IC50: HEK293 cells stably expressing canine TRPM8, icilin activation, eight-point dose-response, read-out: IC50", "procedure,_shortened": "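Eight-point dose-response curves in quadruplicate gave EC50 or IC50 values from a Ca2+-sensitive dye assay in HEK293 cells stably carrying canine TRPM8. Icilin, dosed near its 80% maximal level, followed a 5 min compound exposure.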", "data": [{"smiles": "CCS(=O)(=O)N(CCN1CCOCC1)c1sc2ccccc2c1C(C)=O", "note": "[Compound 124, N-(3-Acetyl-benzo[b]thiophen-2-yl)-N-(2-morpholin-4-yl-ethyl)-ethanesulfonamide]", "values": [{"measurement": "inhibition at 0.2 µM", "value": 14, "unit": "%"}]}, {"smiles": "Cc1c(N(Cc2ccc(F)c(F)c2)S(=O)(=O)Cc2ccccc2)sc2ccccc12", "note": "[Compound 126, N-(3,4-Difluoro-benzyl)-N-(3-methyl-benzo[b]thiophen-2-yl)-phenyl-methanesulfonamide]", "values": [{"measurement": "inhibition at 0.5 µM", "value": 45, "unit": "%"}]}, {"smiles": "Cc1c(N(Cc2ccc(F)c(F)c2)S(=O)(=O)c2cccc(F)c2)sc2ccccc12", "note": "[Compound 127, N-(3,4-Difluoro-benzyl)-N-(3-methyl-benzo[b]thiophen-2-yl)-3-fluoro-benzenesulfonamide]", "values": [{"measurement": "IC50", "value": 8, "unit": "nM"}, {"measurement": "inhibition at 0.5 µM", "value": 98, "unit": "%"}]}, {"smiles": "Cc1c(N(Cc2ccc(F)c(F)c2)S(=O)(=O)c2ccccc2F)sc2ccccc12", "note": "[Compound 128, N-(3,4-Difluoro-benzyl)-N-(3-methyl-benzo[b]thiophen-2-yl)-2-fluoro-benzenesulfonamide]", "values": [{"measurement": "IC50", "value": 9, "unit": "nM"}, {"measurement": "inhibition at 0.5 µM", "value": 99, "unit": "%"}]}, {"smiles": "Cc1c(N(Cc2ccc(F)c(F)c2)S(=O)(=O)c2cccs2)sc2ccccc12", "note": "[Compound 129, N-(3,4-Difluoro-benzyl)-N-(3-methyl-benzo[b]thiophen-2-yl)-thiene-2-ylsulfonamide]", "values": [{"measurement": "IC50", "value": 2.8, "unit": "nM"}, {"measurement": "inhibition at 0.5 µM", "value": 101, "unit": "%"}]}, {"smiles": "Cn1cnc(S(=O)(=O)N(Cc2ccc(F)c(F)c2)c2cc3ccccc3s2)c1", "note": "[Compound 130, N-(Benzo[b]thiophen-2-yl)-N-(3,4-difluoro-benzyl)-1-methyl-1H-imidazole-4-sulfonamide]", "values": [{"measurement": "IC50", "value": 104, "unit": "nM"}, {"measurement": "inhibition at 0.5 µM", "value": 98, "unit": "%"}]}, {"smiles": "O=S(=O)(c1cccc(F)c1)N(Cc1ccc(F)c(F)c1)c1cc2ccccc2s1", "note": "[Compound 131, N-(Benzo[b]thiophen-2-yl)-N-(3,4-difluoro-benzyl)-3-fluoro-benzenesulfonamide]", "values": [{"measurement": "IC50", "value": 48, "unit": "nM"}, {"measurement": "inhibition at 0.5 µM", "value": 95, "unit": "%"}]}, {"smiles": "O=S(=O)(c1ccc(C(F)(F)F)cc1)N(Cc1ccc(F)c(F)c1)c1cc2ccccc2s1", "note": "[Compound 132, N-(Benzo[b]thiophen-2-yl)-N-(3,4-difluoro-benzyl)-4-trifluoromethyl-benzenesulfonamide]", "values": [{"measurement": "inhibition at 0.5 µM", "value": 56, "unit": "%"}]}, {"smiles": "CS(=O)(=O)CS(=O)(=O)N(Cc1ccc(F)c(F)c1)c1cc2ccccc2s1", "note": "[Compound 133, N-(Benzo[b]thiophen-2-yl)-N-(3,4-difluoro-benzyl)-C-methanesulfonyl-methanesulfonamide]", "values": [{"measurement": "IC50", "value": 60, "unit": "nM"}, {"measurement": "inhibition at 0.5 µM", "value": 97, "unit": "%"}]}, {"smiles": "COc1ccc(S(=O)(=O)N(Cc2ccc(F)c(C(F)(F)F)c2)c2cc3ccccc3s2)cc1", "note": "[Compound 134, N-(Benzo[b]thiophen-2-yl)-N-(4-fluoro-3-trifluoromethyl-benzyl)-4-methoxy-benzenesulfonamide]", "values": [{"measurement": "inhibition at 0.2 µM", "value": 30, "unit": "%"}]}, {"smiles": "COC(=O)c1ccc(S(=O)(=O)N(Cc2ccc(F)c(C(F)(F)F)c2)c2cc3ccccc3s2)cc1", "note": "[Compound 135, N-(Benzo[b]thiophen-2-yl)-N-(4-fluoro-3-trifluoromethyl-benzyl)-4-carbomethoxy-benzenesulfonamide]", "values": [{"measurement": "inhibition at 0.2 µM", "value": 18, "unit": "%"}]}, {"smiles": "COC(=O)c1cccc(S(=O)(=O)N(Cc2ccc(F)c(C(F)(F)F)c2)c2cc3ccccc3s2)c1", "note": "[Compound 136, N-(Benzo[b]thiophen-2-yl)-N-(4-fluoro-3-trifluoromethyl-benzyl)-3-carbomethoxy-benzenesulfonamide]", "values": [{"measurement": "inhibition at 0.2 µM", "value": 40, "unit": "%"}]}, {"smiles": "COC(=O)c1cccc(S(=O)(=O)N(Cc2ccc(F)c(C(F)(F)F)c2)c2sc3ccccc3c2C)c1", "note": "[Compound 137, N-(3-Methyl-benzo[b]thiophen-2-yl)-N-(4-fluoro-3-trifluoromethyl-benzyl)-3-carbomethoxy-benzenesulfonamide]", "values": [{"measurement": "IC50", "value": 8, "unit": "nM"}, {"measurement": "inhibition at 0.2 µM", "value": 98, "unit": "%"}]}, {"smiles": "COC(=O)c1ccc(S(=O)(=O)N(Cc2ccc(F)c(C(F)(F)F)c2)c2sc3ccccc3c2C)cc1", "note": "[Compound 138, N-(3-Methyl-benzo[b]thiophen-2-yl)-N-(4-fluoro-3-trifluoromethyl-benzyl)-4-carbomethoxy-benzenesulfonamide]", "values": [{"measurement": "IC50", "value": 13, "unit": "nM"}, {"measurement": "inhibition at 0.2 µM", "value": 83, "unit": "%"}]}]}
